Experimental data taken from the NIST ThermoML archive (doi:10.1016/j.fluid.2004.09.013).

Details: for vapor or sublimation pressure: Liquid; for mass density: Fluid (supercritical or subcritical phases), Vibrating tube method

C/C=C/C [(E)-2-butene]
Details	vapor or sublimation pressure [kPa]
391.25 K	2128.9
396.15 K	2323.1
401.02 K	2529.8
405.96 K	2755.8
411.21 K	3016
416.99 K	3326
423.45 K	3697

Details	mass density [kg/m3]
393.24 K, 2756 kPa	454.89
393.24 K, 10003 kPa	497.51
393.24 K, 19992 kPa	528.52
393.24 K, 24995 kPa	539.91
393.24 K, 29988 kPa	549.71
393.24 K, 34990 kPa	558.37
393.24 K, 39993 kPa	566.17
393.25 K, 4997 kPa	472.39
393.25 K, 14998 kPa	514.88
398.24 K, 2959 kPa	443.84
398.24 K, 4981 kPa	462.17
398.24 K, 19993 kPa	522.99
398.24 K, 24990 kPa	534.84
398.24 K, 29994 kPa	545.03
398.24 K, 34989 kPa	553.97
398.24 K, 39985 kPa	561.98
398.25 K, 9988 kPa	490.01
398.25 K, 14985 kPa	508.6
403.24 K, 3180 kPa	432.03
403.24 K, 4993 kPa	451.14
403.24 K, 20001 kPa	517.41
403.24 K, 24988 kPa	529.74
403.24 K, 29983 kPa	540.28
403.24 K, 40005 kPa	557.82
403.25 K, 9990 kPa	482.36
403.25 K, 14985 kPa	502.24
403.25 K, 34985 kPa	549.53
408.25 K, 3414 kPa	419.31
408.25 K, 4983 kPa	439.35
408.25 K, 9983 kPa	474.42
408.25 K, 14983 kPa	495.75
408.25 K, 19999 kPa	511.74
408.25 K, 24993 kPa	524.63
408.25 K, 29986 kPa	535.55
408.25 K, 35006 kPa	545.13
408.25 K, 39984 kPa	553.58
413.25 K, 3663 kPa	405.52
413.25 K, 4996 kPa	426.54
413.25 K, 9995 kPa	466.32
413.25 K, 14985 kPa	489.18
413.25 K, 19983 kPa	505.96
413.25 K, 24984 kPa	519.43
413.25 K, 30003 kPa	530.83
413.25 K, 34985 kPa	540.64
413.25 K, 39999 kPa	549.4
418.25 K, 3926 kPa	390.44
418.25 K, 5005 kPa	412.09
418.25 K, 10002 kPa	457.93
418.25 K, 14984 kPa	482.48
418.25 K, 19988 kPa	500.19
418.25 K, 25008 kPa	514.29
418.25 K, 30007 kPa	526.05
418.25 K, 34987 kPa	536.18
418.25 K, 40000 kPa	545.19
423.25 K, 4203 kPa	373.85
423.25 K, 4985 kPa	394.86
423.25 K, 9986 kPa	449.09
423.25 K, 14991 kPa	475.65
423.25 K, 20002 kPa	494.39
423.25 K, 24993 kPa	509.02
423.25 K, 30004 kPa	521.25
423.25 K, 34988 kPa	531.71
423.25 K, 39993 kPa	540.98
428.25 K, 4495 kPa	355.87
428.25 K, 4987 kPa	374.39
428.25 K, 9990 kPa	440.12
428.25 K, 14983 kPa	468.7
428.25 K, 20010 kPa	488.52
428.25 K, 24997 kPa	503.78
428.25 K, 30004 kPa	516.44
428.25 K, 34994 kPa	527.25
428.25 K, 39986 kPa	536.76
433.25 K, 5019 kPa	349.08
433.25 K, 9991 kPa	430.38
433.25 K, 14995 kPa	461.71
433.25 K, 19998 kPa	482.53
433.25 K, 25004 kPa	498.52
433.25 K, 30001 kPa	511.61
433.25 K, 34993 kPa	522.78
433.25 K, 39997 kPa	532.57
438.25 K, 5017 kPa	309.55
438.25 K, 9985 kPa	420.62
438.25 K, 14989 kPa	454.5
438.25 K, 19998 kPa	476.52
438.25 K, 25008 kPa	493.22
438.25 K, 30004 kPa	506.79
438.25 K, 34989 kPa	518.29
438.25 K, 39985 kPa	528.34
443.25 K, 5019 kPa	241.91
443.25 K, 9986 kPa	410.38
443.25 K, 14991 kPa	447.2
443.25 K, 20002 kPa	470.46
443.25 K, 25001 kPa	487.86
443.25 K, 30002 kPa	501.91
443.25 K, 34997 kPa	513.82
443.25 K, 39989 kPa	524.15
448.25 K, 5019 kPa	186.22
448.25 K, 9990 kPa	399.76
448.25 K, 14990 kPa	439.76
448.25 K, 19992 kPa	464.3
448.25 K, 24997 kPa	482.49
448.25 K, 29990 kPa	497.07
448.25 K, 34988 kPa	509.34
448.25 K, 39987 kPa	519.97
453.25 K, 5019 kPa	159.59
453.25 K, 9992 kPa	388.61
453.25 K, 14987 kPa	432.19
453.25 K, 20001 kPa	458.19
453.25 K, 24998 kPa	477.11
453.25 K, 29995 kPa	492.22
